Data from BindingDB's records for doi:10.1021/acs.jmedchem.8b00655 (University of Iowa, 2018).

Assay: Binding affinity to BTN3A1 in human PBMC assessed as stimulation of Vgamma9 Vdelta2 T cells incubated for 3 days and measured after 11 days post compound removal by flow cytometry
In the case of `CCOC(=O)CNP(=O)(CC/C=C(\C)CO)Oc1ccccc1` (stereo not given), the EC50 is reported as 0.36 nM. With `C/C(=C\CCP(=O)(NCC(=O)OC(C)C)Oc1cccc2ccccc12)CO` (stereo not given) the EC50 was 0.34 nM. In the case of `COC(=O)CNP(=O)(CC/C=C(\C)CO)Oc1cccc2ccccc12` (stereo not given), the EC50 is reported as 0.44 nM. With `CCOC(=O)CNP(=O)(CC/C=C(\C)CO)Oc1cccc2ccccc12` (stereo not given) the EC50 was 0.36 nM. Work on `CCOC(=O)CNP(=O)(CC/C=C(\C)CO)Oc1ccc2ccccc2c1` (stereo not given) yielded an EC50 of 0.53 nM. With `C/C(=C\CCP(=O)(NCC(=O)OC(C)C)Oc1ccc2ccccc2c1)CO` (stereo not given) the EC50 was 0.82 nM. For `COC(=O)CNP(=O)(CC/C=C(\C)CO)Oc1ccccc1` (stereo not given), the EC50 was 1.5 nM. `C/C(=C\CCP(=O)(NCC(=O)OC(C)C)Oc1ccccc1)CO` (stereo not given) showed an EC50 of 1.1 nM. `COP(=O)(CC/C=C(\C)CO)OC` showed an EC50 greater than 10000 nM. `COC(=O)CNP(=O)(CC/C=C(\C)CO)Oc1ccc2ccccc2c1` (stereo not given) gave an EC50 of 0.58 nM.
